Carcinogen call data for one compound are collected here from PubChem BioAssay AID1259411 (Chemical Carcinogenesis Research Information System (CCRIS), 2018).

The source made the active and inactive calls. No rule for the calls is given here.

The data set has as its system rodent carcinogenicity bioassays, tumor incidence. Briefly: CCRIS carcinogenicity studies. As to conditions: Species: MOUSE. A digest of the protocol:
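Archive of carcinogenicity, mutagenicity, tumor promotion and tumor inhibition results drawn from journals, NCI reports and other sources, expert-reviewed; covers 1985-2011 and is no longer updated.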

With `c1ccc2c(c1)cc1ccc3cccc4ccc2c1c34`, the carcinogen call by setting is: (Strain/Sex: C3H/MALE, Route: DERMAL, Dose: 0.15-470 UG, 3/WK FOR LIFE, Tumor Site: Type of Lesion: INTEGUMENTARY SYSTEM (SKIN)) “active; positive”; (Strain/Sex: C3H/MALE, Route: SUBCUTANEOUS, Dose: 0.00195-8.0 MG, SINGLE DOSE, Tumor Site: Type of Lesion: INJECTION SITE: SARCOMA) “active; positive”; (Strain/Sex: C3H, Route: DERMAL, Dose: 0.00002-0.02%, 3/WK FOR UP TO 80 WK, Tumor Site: Type of Lesion: INTEGUMENTARY SYSTEM (SKIN)) “active; positive”; (Strain/Sex: C57BL/FEMALE, Route: INTRATRACHEAL, Dose: 0, 1 MG ON CHARCOAL POWDER INSTILLED 8 TIMES (STUDY DURATION: 13 WK), Tumor Site: Type of Lesion: LUNG: SQUAMOUS CELL CARCINOMA OR ADENOCARCINOMA) “active; positive”; (Strain/Sex: C57BL/FEMALE, Route: SUBCUTANEOUS, Dose: 0, 0.5, 1 MG IN 1% AQUEOUS GELATIN INJECTED IN THE SCAPULAR REGION OF NEWBORN MICE ONCE (STUDY DURATION: 9 WK), Dose: 0, 0.5, 1 MG IN 1% AQUEOUS GELATIN INJECTED IN THE SCAPULAR REGION OF NEWBORN MICE ONCE (STUDY DURATION: 9 WK)) “inactive; negative”; (Strain/Sex: C57BL/MALE, Route: SUBCUTANEOUS, Dose: 0, 0.5, 1 MG IN 1% AQUEOUS GELATIN INJECTED IN THE SCAPULAR REGION OF NEWBORN MICE ONCE (STUDY DURATION: 9 WK), Dose: 0, 0.5, 1 MG IN 1% AQUEOUS GELATIN INJECTED IN THE SCAPULAR REGION OF NEWBORN MICE ONCE (STUDY DURATION: 9 WK)) “inactive; negative”. The carcinogen call was “active; positive” (Strain/Sex: C57BL, Route: DERMAL, Dose: 0.0001-0.5%, 3/WK, Tumor Site: Type of Lesion: INTEGUMENTARY SYSTEM (SKIN)); “active; positive” (Strain/Sex: C57BL, Route: SUBCUTANEOUS, Dose: 0.00004, 0.0004, 0.004, 0.04 MG, SINGLE DOSE, Tumor Site: Type of Lesion: INJECTION SITE: SARCOMA); “inactive; negative” (Strain/Sex: C57BR/CDJ/FEMALE, Route: SUBCUTANEOUS, Dose: 0, 0.5, 1 MG IN 1% AQUEOUS GELATIN INJECTED IN THE SCAPULAR REGION OF NEWBORN MICE ONCE (STUDY DURATION: 9 WK), Dose: 0, 0.5, 1 MG IN 1% AQUEOUS GELATIN INJECTED IN THE SCAPULAR REGION OF NEWBORN MICE ONCE (STUDY DURATION: 9 WK)); “inactive; negative” (Strain/Sex: C57BR/CDJ/MALE, Route: SUBCUTANEOUS, Dose: 0, 0.5, 1 MG IN 1% AQUEOUS GELATIN INJECTED IN THE SCAPULAR REGION OF NEWBORN MICE ONCE (STUDY DURATION: 9 WK), Dose: 0, 0.5, 1 MG IN 1% AQUEOUS GELATIN INJECTED IN THE SCAPULAR REGION OF NEWBORN MICE ONCE (STUDY DURATION: 9 WK)); “active; positive” (Strain/Sex: CAF1, Route: DERMAL, Dose: 0.0005, 0.001, 0.5%, 3/WK, Tumor Site: Type of Lesion: INTEGUMENTARY SYSTEM (SKIN): PAPILLOMA); “active; positive” (Strain/Sex: CFW/MALE, FEMALE, Route: ORAL, Dose: 30-250 PPM IN DIET FOR 70-197 D, Tumor Site: Type of Lesion: STOMACH). The carcinogen call was “active; positive” (Strain/Sex: CFW/MALE, FEMALE, Route: ORAL, Dose: 250 PPM IN DIET FOR 1-30 D, OBSERVED UNTIL 103-107 D, Tumor Site: Type of Lesion: FORESTOMACH); “active; positive” (Strain/Sex: CFW, Route: SUBCUTANEOUS, Dose: 0.001-2 MG, SINGLE DOSE, Tumor Site: Type of Lesion: INJECTION SITE: FIBROSARCOMA); “inactive; negative” (Strain/Sex: DBA/2/FEMALE, Route: INTRATRACHEAL, Dose: 0, 1 MG ON CHARCOAL POWDER INSTILLED 8 TIMES (STUDY DURATION: 13 WK)); “active; positive” (Strain/Sex: EU-PIM-1/MALE, Route: GAVAGE, Dose: 0, 4.3, 13, 39 MG/KG BW IN 0.1 ML SOY OIL 3/WK FOR 13 WK (STUDY DURATION: 291 D), Dose: 0, 4.3, 13, 39 MG/KG BW IN 0.1 ML SOY OIL 3/WK FOR 13 WK (STUDY DURATION: 291 D), Tumor Site: Type of Lesion: LYMPHATIC SYSTEM: LYMPHOMA, FORESTOMACH: TUMOR); “active; positive” (Strain/Sex: ICR/FEMALE, Route: INTRAPERITONEAL, Dose: 0, 59.5 UG TOTAL DOSE (8.5 UG/5 µL, 17 UG/10 µL, 34 UG/20 µL DMSO ON DAYS 1, 8 AND 15) ADMINISTERED TO NEWBORN ANIMALS (, Tumor Site: Type of Lesion: LUNG: ADENOMA); “active; positive” (Strain/Sex: ICR/MALE, Route: INTRAPERITONEAL, Dose: 0, 59.5 UG TOTAL DOSE (8.5 UG/5 µL, 17 UG/10 µL, 34 UG/20 µL DMSO ON DAYS 1, 8 AND 15) ADMINISTERED TO NEWBORN ANIMALS (, Tumor Site: Type of Lesion: LUNG: ADENOMA). Moreover, the carcinogen call is “inactive; negative” (Strain/Sex: N:GP(S)/FEMALE, Route: INTRATRACHEAL, Dose: 0, 1 MG ON CHARCOAL POWDER INSTILLED 8 TIMES (STUDY DURATION: 13 WK)); “active; positive” (Strain/Sex: N:GP(S)/FEMALE, Route: SUBCUTANEOUS, Dose: 0, 40, 62.5, 125, 250, 500, 1000 UG FOR 9 WK (STUDY DURATION: 9 WK), Dose: 0, 40, 62.5, 125, 250, 500, 1000 UG FOR 9 WK (STUDY DURATION: 9 WK), Tumor Site: Type of Lesion: LUNG: ADENOMA); “active; positive” (Strain/Sex: N:GP(S)/MALE, Route: SUBCUTANEOUS, Dose: 0, 40, 62.5, 125, 250, 500, 1000 UG FOR 9 WK (STUDY DURATION: 9 WK), Dose: 0, 40, 62.5, 125, 250, 500, 1000 UG FOR 9 WK (STUDY DURATION: 9 WK), Tumor Site: Type of Lesion: LUNG: ADENOMA).
